# Like-named read-outs stand apart in the source and are kept apart here.
# How the values were obtained:
# [1] = system: FtsZ in S. agalactiae ATCC 12386 cells; test: FtsZ visualization by fluorescence microscopy in live cells; format: cell-based, Streptococcus agalactiae; conditions: 1 µg/mL for 5 minutes
# Procedure: (§1) All differential interference contrast (DIC) and fluorescence microscopy experiments were conducted using an Olympus BX50 microscope equipped with an X-cite Exacte 200 W mercury lamp, a 100× Olympus UPLSAPO oil immersion objective (1.40 aperture), as well as both Chroma ET-EGFP (FITC/Cy2) and ET mCherry, Texas Red filters. Images were captured using a QImaging Retiga R3 charge-coupled device (CCD) camera and the Ocular-Version 2.0 software package (QImaging).
# (§2) For visualizing FtsZ in Gram-positive bacteria using BOFP, the bacterial cells were grown to log-phase in media suitable for each individual pathogen. Specifically, S. aureus NRS705 (MRSA) was grown in tryptic soy broth (TSB), E. faecalis ATCC 29212 and E. faecium ATCC 19434 were grown in lactobacilli MRS broth, S. agalactiae ATCC 12386 and S. pneumoniae ATCC 49619 were grown in TH broth, and S. pyogenes ATCC 19615 was grown in CAMH broth supplemented with 3% (v/v) LHB. For each Gram-positive bacterial strain, a total of 1 mL of cell culture was centrifuged at 15,000 × g for 1 minute and washed 2–3 times with 1 mL of PBS. After the final wash, the pelleted cells were resuspended in 500 µL of PBS containing 1 µg/mL of BOFP and incubated in the dark for 5 minutes at room temperature. The cells were then centrifuged at 15,000 × g for 1 minute, washed twice with 1 mL of PBS, and subsequently resuspended in 200 µL of PBS. […]
# A. baumannii (AbFtsZ) = target: T1, A. baumannii (AbFtsZ) (Acinetobacter baumannii, UniProt V5V8B6); test: Fluorescence anisotropy binding of BOFP to AbFtsZ; conditions: for Kd: 50 mM Tris-HCl (pH 7.6), 50 mM KCl, 0.1 µM BOFP
# T1 sequence (V5V8B6 1-391): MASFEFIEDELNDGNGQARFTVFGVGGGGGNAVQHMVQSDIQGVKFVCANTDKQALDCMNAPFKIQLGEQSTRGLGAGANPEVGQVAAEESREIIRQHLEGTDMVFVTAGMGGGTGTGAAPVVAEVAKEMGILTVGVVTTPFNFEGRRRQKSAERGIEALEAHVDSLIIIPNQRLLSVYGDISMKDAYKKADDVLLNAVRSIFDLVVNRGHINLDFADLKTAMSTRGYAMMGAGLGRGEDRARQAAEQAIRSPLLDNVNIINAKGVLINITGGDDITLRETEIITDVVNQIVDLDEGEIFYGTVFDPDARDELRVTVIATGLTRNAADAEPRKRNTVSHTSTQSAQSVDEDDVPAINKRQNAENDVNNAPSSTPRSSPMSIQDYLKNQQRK
# Procedure: Fluorescence anisotropy experiments were performed using an AVIV model ATF105 spectrofluorometer at 15, 25, or 37 °C. In these experiments, bandwidths were set to 4 nm in both the excitation and emission directions, with the excitation and emission wavelengths being set at 488 nm and 510 nm, respectively. BOFP (0.1 µM) was titrated with increasing concentrations (ranging from 0 to 12 µM) of FtsZ in 120 µL of buffer containing 50 mM Tris-HCl (pH 7.6) and 50 mM KCl. After each protein addition, the samples were equilibrated for 3 minutes, whereupon the fluorescence anisotropy was measured.
# In this equation, r0 is the anisotropy of the protein-free compound, r∞ is the anisotropy of the compound in the presence of an infinite concentration of FtsZ, [C]tot is the total concentration of the compound, and [P]tot is the total concentration of protein with each addition. These analyses yielded the equilibrium dissociation constant (Kd) for each binding reaction.
# The binding free energy (ΔG) at temperature T was derived from the corresponding Kd value determined at T using the following relationship:2 ΔG=−RTln(1/Kd)
# The binding enthalpy (ΔH) and entropy (ΔS) were derived from linear fits of the ln(1/Kd) vs. 1/T plots shown in Figs. 3f and 5e using the following relationship:3 ln(1/Kd)=−ΔH/R(1/T)+ΔS/R
# [2] = system: FtsZ in S. pneumoniae ATCC 49619 cells; test: FtsZ visualization by fluorescence microscopy in live cells; format: cell-based, Streptococcus pneumoniae; conditions: 1 µg/mL for 5 minutes
# Procedure: as §1, §2
# [3] = target: T2, FtsZ in S. aureus NRS705 cells (Staphylococcus aureus, UniProt P0A031); format: cell-based; conditions: 1 µg/mL for 5 minutes
# T2 construct: endogenous in cells; host or cells: S. aureus NRS705 (USA100 MRSA)
# T2 sequence (P0A031 whole entry): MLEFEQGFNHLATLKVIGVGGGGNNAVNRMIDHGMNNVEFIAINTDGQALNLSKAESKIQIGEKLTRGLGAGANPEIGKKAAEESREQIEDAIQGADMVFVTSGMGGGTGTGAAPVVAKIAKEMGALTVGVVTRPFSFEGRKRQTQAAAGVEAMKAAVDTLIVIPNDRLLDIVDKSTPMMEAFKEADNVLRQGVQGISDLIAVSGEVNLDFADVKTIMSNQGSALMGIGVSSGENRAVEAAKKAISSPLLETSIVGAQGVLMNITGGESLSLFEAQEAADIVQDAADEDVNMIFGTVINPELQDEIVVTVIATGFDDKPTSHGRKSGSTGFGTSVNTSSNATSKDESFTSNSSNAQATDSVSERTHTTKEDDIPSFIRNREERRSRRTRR
# Procedure: as §1, §2
smiles,measurement,setting,value
CC1=CC(C)=[N+]2C1=Cc1ccc(CCC(=O)OCC(Oc3ccc(F)c(C(N)=O)c3F)c3nc(-c4ccc(C(F)(F)F)cc4)c(Br)o3)n1[B-]2(F)F (stereo not shown) [BOFP],Fluorescence staining / FtsZ labeling in live cells,[1],bright bands of fluorescence staining are clearly visible at midcell
same,Kd,"A. baumannii (AbFtsZ); 15 °C, read-out: Kd - 15 °C",400 ± 30 nM
same,Kd,"A. baumannii (AbFtsZ); 25 °C, read-out: Kd - 25 °C",550 ± 20 nM
same,Kd,"A. baumannii (AbFtsZ); 37 °C, read-out: Kd - 37 °C",680 ± 40 nM
same,ΔH,A. baumannii (AbFtsZ); from linear fit of ln(1/Kd) vs. 1/T,-4.2 ± 0.6 kcal/mol
same,Fluorescence staining / FtsZ labeling in live cells,[2],bright bands of fluorescence staining are clearly visible at midcell
same,Fluorescence staining / FtsZ labeling in live cells,[3],bright bands of fluorescence staining are clearly visible at midcell

# Source: article PMC6934700, “Structure-Guided Design of a Fluorescent Probe for the Visualization of FtsZ in Clinically Important Gram-Positive and Gram-Negative Bacterial Pathogens” (Scientific Reports, 2019)
